US11447500B2, “Thienopyridine derivatives and pharmaceutical composition comprising same” (WELLMARKER BIO CO., LTD., priority 2018, dated 2022)

What was measured:
RON kinase = biological target: T1, RON kinase (Homo sapiens, UniProt Q04912); experiment: RON kinase enzyme inhibitory activity, FRET (TR-FRET) technique; assay type: biochemical; conditions: 60 min reaction
T1 construct: purchased Carna Bioscience
Procedure: The enzyme inhibitory activity (IC50) of the thienopyridine derivative was measured using FRET (fluorescence resonance energy transfer) technique. RON kinase (Carna Bioscience) was diluted with a kinase assay buffer (50 mM HEPES pH 7.5, 1 mM EGTA, 10 mM MgCl2, 2 mM DTT, and 0.01% Tween-20) to a concentration of 2× (0.4 nM) the final reaction concentration and the dilution was added to a 384-well plate at 5 μL/well. As sample compounds, the compounds synthesized in the examples of the present invention and the compounds of the comparative examples were used. The sample compounds were respectively dissolved in 100% DMSO to obtain 1 mM stock solutions, which were then subjected to eight 10-fold serial dilutions. The sample compounds were diluted with the kinase assay buffer to a concentration of 4× the final reaction concentration, and the dilutions were added to the 384-well plate at 2.5 μL/well. The plate was incubated at room temperature for 15 minutes. Next, 0.25 M ATP solution (Sigma Aldrich) was diluted with the kinase reaction buffer to a concentration of 4× (60 μM) the final reaction concentration, and a tyrosine peptide substrate (Perkin-Elmer) was diluted therein to a concentration of 4× (400 nM) the final reaction concentration. The dilution was added to the 384-well plate at 2.5 μL/well. Then, the 384-well plate was incubated at room temperature and the reaction was allowed to proceed for 60 minutes. After 60 minutes, EDTA (Sigma Aldrich) was diluted with TR-FRET detection buffer (Perkin-Elmer) to a concentration of 4× (40 mM) the final reaction concentration. A europium-labeled anti-phosphotyrosine antibody (Perkin-Elmer) was diluted in the above EDTA dilution to a concentration of 4× (8 nM) the final reaction concentration to prepare a stop solution of the RON kinase reaction. The stop solution was added to the 384-well plate at 10 μL/well to terminate the reaction, and the plate was incubated at room temperature for 60 minutes. Thereafter, the plate was read on Victor X5 plate reader (Perkin-Elmer). At this time, the excitation wavelength was 340 nm and the emission wavelengths were 620 nm and 665 nm. The IC50 values of the sample compounds were determined using GraphPad Prism™ 5 by expressing the emission energy at 665 nm as a function of the sample compound concentration.

[1] = tested on: RON-activated KM12C colon cancer cell line; experiment: Cell killing efficacy, trypan blue exclusion assay, KM12C; assay type: cell-based; conditions: 48 hours
Procedure: (§1) Two colon cancer cell lines, RON-activated KM12C (80015, KCLB, MEM+10% FBS) and RON-mutated (Δ160) HT-29 (30038, KCLB, RPMI+10% FBS) were prepared in 6-well plates at 5×10^4 cells/well, respectively. After 24 hours, while freshly changing the medium, the sample compounds were added to the wells at a concentration of 1 μM or 5 μM and the plates were allowed to stand for 48 hours.
(§2) As the sample compounds, the compounds synthesized in the examples of the present invention and the compounds of the comparative examples were used.
(§3) After 48 hours, the cell suspensions were collected and centrifuged (1,500 rpm, 4 min.) to obtain the cells, and live cells and dead cells were quantitated (n=2) through a trypan blue (15250-061, Gibco) exclusion assay. The statistical analysis was performed using Excel™ T-test from Microsoft.
(§4) The cell death rates of the compounds of Examples and Comparative Examples were respectively measured and the results are shown in Table 4 as relative ratios to Comparative Example 1.

[2] = tested on: RON-mutated (Δ160) HT-29 colon cancer cell line; experiment: Cell killing efficacy, trypan blue exclusion assay, HT-29; assay type: cell-based; conditions: HT29 cell, 48 hours
Procedure: as §1, §2, §3, §4

KM12C cells = experiment: Cytotoxicity MTS assay, KM12C; assay type: cell-based; conditions: Homo sapiens, 72 hours
Procedure: (§5) In order to confirm the specific cytotoxicity of the drugs, the cultured cells were treated with 0.05% trypsin/EDTA (0.5% trypsin EDTA (10×), Product No.: 15400-054, GIBCO) to detach them from the culture dish, and 3,000 cells (KM12C) or 2,000 cells (HT29, Colo 320 HSR) were dispensed into each well.
(§6) After 24 hours, sample compounds were dissolved in DMSO (Product No.: D8418-250ML, SIGMA) to make 10 mM stock solutions. As the sample compounds, the compounds synthesized in the examples of the present invention and the compounds of the comparative examples were used.
(§7) The cells were treated with the sample compound dilutions, and cultured in a 5% CO2 incubator at 37° C. for 72 hours.
(§8) Thereafter, 20 μL of MTS solution (CellTiter™ 96 Aqueous One Solution Cell Proliferation Assay, Product No.: G3581, Promega) was dispensed into each well and mixed well, and the cells were incubated for 1 to 4 hours at 37° C. in a 5% CO2 incubator.

HT29 cells = experiment: Cytotoxicity MTS assay, HT29; assay type: cell-based; conditions: Homo sapiens, HT-29, 72 hours
Procedure: as §5, §6, §7, §8

T1 sequence (Q04912 25-1400): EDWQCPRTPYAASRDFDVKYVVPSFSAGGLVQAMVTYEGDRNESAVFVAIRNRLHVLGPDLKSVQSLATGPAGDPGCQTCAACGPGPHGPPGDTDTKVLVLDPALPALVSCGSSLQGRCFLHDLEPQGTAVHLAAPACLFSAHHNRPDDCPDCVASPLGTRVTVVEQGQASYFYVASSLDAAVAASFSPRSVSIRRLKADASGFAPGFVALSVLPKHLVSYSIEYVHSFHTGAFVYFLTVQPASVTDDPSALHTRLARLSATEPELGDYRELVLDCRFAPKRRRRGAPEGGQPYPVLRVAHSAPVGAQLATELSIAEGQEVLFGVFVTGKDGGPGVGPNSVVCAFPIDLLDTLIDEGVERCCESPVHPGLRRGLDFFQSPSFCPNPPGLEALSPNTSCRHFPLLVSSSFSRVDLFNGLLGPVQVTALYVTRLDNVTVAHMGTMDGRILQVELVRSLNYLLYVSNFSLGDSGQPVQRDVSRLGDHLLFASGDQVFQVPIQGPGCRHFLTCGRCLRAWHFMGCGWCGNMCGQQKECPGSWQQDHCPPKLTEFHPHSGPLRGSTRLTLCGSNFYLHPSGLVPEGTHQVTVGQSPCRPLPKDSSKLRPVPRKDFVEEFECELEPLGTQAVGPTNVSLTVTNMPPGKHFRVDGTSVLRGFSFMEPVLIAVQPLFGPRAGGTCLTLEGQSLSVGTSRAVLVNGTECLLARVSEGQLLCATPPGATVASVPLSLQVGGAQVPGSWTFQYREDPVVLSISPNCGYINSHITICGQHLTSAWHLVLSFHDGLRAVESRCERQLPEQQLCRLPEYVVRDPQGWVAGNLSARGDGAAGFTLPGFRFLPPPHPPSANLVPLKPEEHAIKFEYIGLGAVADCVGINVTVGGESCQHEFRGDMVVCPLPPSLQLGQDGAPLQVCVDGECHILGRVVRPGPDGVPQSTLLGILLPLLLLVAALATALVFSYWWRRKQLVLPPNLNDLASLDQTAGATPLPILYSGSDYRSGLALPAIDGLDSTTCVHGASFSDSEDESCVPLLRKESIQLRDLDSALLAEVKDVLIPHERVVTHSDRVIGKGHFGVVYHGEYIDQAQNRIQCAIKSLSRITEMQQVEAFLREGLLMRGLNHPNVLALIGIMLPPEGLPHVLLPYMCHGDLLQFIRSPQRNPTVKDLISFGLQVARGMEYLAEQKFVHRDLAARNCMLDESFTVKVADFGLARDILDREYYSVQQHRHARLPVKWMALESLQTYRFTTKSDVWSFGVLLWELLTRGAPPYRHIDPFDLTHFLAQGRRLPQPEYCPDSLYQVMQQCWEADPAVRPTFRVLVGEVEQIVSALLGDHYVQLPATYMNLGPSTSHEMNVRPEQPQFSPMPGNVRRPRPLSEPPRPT

Structure (SMILES) | IC50 (RON kinase) | Cell death rate (Relative to Comp. Ex. 1) ([1]; 1 μM) | Cell death rate (Relative to Comp. Ex. 1) ([1]; 5 μM) | Cell death rate (Relative to Comp. Ex. 1) ([2]; 1 μM) | Cell death rate (Relative to Comp. Ex. 1) ([2]; 5 μM) | IC50 (KM12C cells) | IC50 (HT29 cells)
CCOc1ccn(-c2ccc(F)cc2)c(=O)c1C(=O)Nc1ccc(Oc2ccnc(N)c2Cl)c(F)c1 [Comp. Ex. 1, N-{4-[(2-amino-3-chloro-4-pyridinyl)oxy]-3-fluorophenyl}-4-ethoxy-1-(4-fluorophenyl)-2-oxo-1,2-dihydro-3-pyridinecarboxamide, reference compound] | 1.11 nM | x 1.00 | x 1.00 | x 1.00 | x 1.00 | 511 nM | 10000 to 20000 nM
CCOc1ccn(-c2ccc(F)cc2)c(=O)c1C(=O)Nc1ccc(Oc2ccnc3cc(-c4ccc(CN5CCOCC5)cn4)sc23)c(F)c1.Cl [Example 31, 4-ethoxy-N-[3-fluoro-4-({2-[5-(morpholinomethyl)pyridin-2-yl]thieno[3,2-b]pyridin-7-yl}oxy)phenyl]-1-(4-fluorophenyl)-2-oxo-1,2-dihydropyridine-3-carboxamide Hydrochloride] | 0.39 nM | x 1.52 | x 1.17 | x 2.11 | x 1.21 | 7 nM | 609 nM
COCCNCc1ccc(-c2cc3nccc(Oc4ccc(NC(=O)c5ccc(C)n(-c6ccc(F)cc6)c5=O)cc4F)c3s2)nc1.Cl [Example 22, N-(3-fluoro-4-{[2-(5-{[(2-methoxyethyl)amino]methyl}pyridin-2-yl)thieno[3,2-b]pyridin-7-yl]oxy}phenyl)-1-(4-fluorophenyl)-6-methyl-2-oxo-1,2-dihydropyridine-3-carboxamide Hydrochloride] | 0.44 nM | x 1.48 | x 1.61 | x 1.07 | x 1.71 | 1 nM | 1180 nM
CCOc1ccn(-c2cccc(F)c2)c(=O)c1C(=O)Nc1ccc(Oc2ccnc3cc(-c4ccc(CNCCOC)cn4)sc23)c(F)c1.Cl [Example 14, 4-ethoxy-N-(3-fluoro-4-{[2-(5-{[(2-methoxyethyl)amino]methyl}pyridin-2-yl)thieno[3,2-b]pyridin-7-yl]oxy}phenyl)-1-(3-fluorophenyl)-2-oxo-1,2-dihydropyridine-3-carboxamide Hydrochloride] | 0.45 nM | x 1.58 | x 1.43 | x 1.59 | x 3.81 | 63 nM | 668 nM
COCCNCc1ccc(-c2cc3nccc(Oc4ccc(NC(=O)c5ccc(C)n(-c6ccccc6)c5=O)cc4F)c3s2)nc1.Cl [Example 21, N-(3-fluoro-4-{[2-(5-{[(2-methoxyethyl)amino]methyl}pyridin-2-yl)thieno[3,2-b]pyridin-7-yl]oxy}phenyl)-6-methyl-2-oxo-1-phenyl-1,2-dihydropyridine-3-carboxamide Hydrochloride] | 0.56 nM | x 0.93 | x 4.06 | x 1.30 | x 4.10 | 1500 nM | 1300 nM
COCCNCc1ccc(-c2cc3nccc(Oc4ccc(NC(=O)c5ccnn(-c6ccc(F)cc6)c5=O)cc4F)c3s2)nc1.Cl [Example 20, N-(3-fluoro-4-[{2-(5-[{(2-methoxyethyl)amino}methyl]pyridin-2-yl)thieno[3,2-b]pyridin-7-yl}oxy]phenyl)-2-(4-fluorophenyl)-3-oxo-2,3-dihydropyridazine-4-carboxamide Hydrochloride] | 2.47 nM | x 1.07 | x 1.11 | x 0.75 | x 1.13 | 10 nM | > 10000 nM
CCOc1ccn(-c2ccccc2)c(=O)c1C(=O)Nc1ccc(Oc2ccnc3cc(-c4ccc(CNCCOC)cn4)sc23)c(F)c1.Cl [Example 1, 4-ethoxy-N-(3-fluoro-4-{[2-(5-{[(2-methoxyethyl)amino]methyl}pyridin-2-yl)thieno[3,2-b]pyridin-7-yl]oxy}phenyl)-2-oxo-1-phenyl-1,2-dihydropyridine-3-carboxamide hydrochloride] | 0.51 nM | x 3.37 | x 2.47 | x 4.06 | x 2.41 | 45 nM | 1100 nM
COCCNCc1ccc(-c2cc3nccc(Oc4ccc(NC(=O)c5c(C)ccn(-c6ccc(F)cc6)c5=O)cc4F)c3s2)nc1.Cl [Example 25, N-(3-fluoro-4-{[2-(5-{[(2-methoxyethyl)amino]methyl}pyridin-2-yl)thieno[3,2-b]pyridin-7-yl]oxy}phenyl)-1-(4-fluorophenyl)-4-methyl-2-oxo-1,2-dihydropyridine-3-carboxamide Hydrochloride] | 0.23 nM | x 0.44 | x 0.69 | x 3.13 | x 2.97 | 25 nM | 1380 nM
Cc1ccc(C(=O)Nc2ccc(Oc3cc4cnn(C)c4cc3-c3cn[nH]c3)c(F)c2)c(=O)n1-c1ccc(F)cc1 [Comp. Ex. 3, N-(3-fluoro-4-(1-methyl-6-(1H-pyrazol-4-yl)-1H-indazol-5-yloxy)phenyl)-1-(4-fluorophenyl)-6-methyl-2-oxo-1,2-dihydropyridine-3-carboxamide, reference compound] | 3.74 nM | x 0.54 | x 0.33 | x 0.83 | x 0.52 | 117 nM | 10800 nM
CCOc1ccn(-c2ccccc2)c(=O)c1C(=O)Nc1ccc(Oc2ccnc3cc(-c4ccc(CN5CCOCC5)cn4)sc23)c(F)c1.Cl [Example 32, 4-ethoxy-N-[3-fluoro-4-({2-[5-(morpholinomethyl)pyridin-2-yl]thieno[3,2-b]pyridin-7-yl}oxy)phenyl]-2-oxo-1-phenyl-1,2-dihydropyridine-3-carboxamide Hydrochloride] | 0.81 nM | x 1.52 | x 1.11 | x 1.55 | x 1.45 | 3 nM | 325 nM
